Results taken from patent US9840508B2, “N-acyl-(3-substituted)-(8-methyl)-5,6-dihydro-[1,2,4]triazolo[4,3-a] pyrazines as selective NK-3 receptor antagonists, pharmaceutical composition, methods for use in NK-3 receptor-mediated disorders” (EUROSCREEN SA, priority 2013, dated 2017).
Where two headings read alike, the source gives them in different places.

Key:
[1] = target: T1, human NK-3 receptor (Homo sapiens (Human), UniProt P29371); assay: 3H-SB222200 binding competition assay with human NK-3 receptor
T1 sequence (P29371 whole entry): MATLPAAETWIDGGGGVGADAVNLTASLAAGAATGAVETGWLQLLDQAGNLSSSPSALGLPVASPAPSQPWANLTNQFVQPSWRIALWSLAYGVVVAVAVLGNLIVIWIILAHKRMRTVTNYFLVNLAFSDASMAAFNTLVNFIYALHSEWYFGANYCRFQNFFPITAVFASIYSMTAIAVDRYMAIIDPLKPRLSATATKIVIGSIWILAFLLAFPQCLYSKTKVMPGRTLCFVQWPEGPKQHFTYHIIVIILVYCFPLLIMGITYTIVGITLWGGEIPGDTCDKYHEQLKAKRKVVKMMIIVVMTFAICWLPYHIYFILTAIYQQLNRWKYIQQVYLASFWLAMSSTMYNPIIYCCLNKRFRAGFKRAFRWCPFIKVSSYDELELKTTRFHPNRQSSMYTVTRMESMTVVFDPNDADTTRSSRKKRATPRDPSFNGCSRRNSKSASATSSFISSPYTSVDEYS
Method: The affinity of compounds of the invention for the human NK-3 receptor was determined by measuring the ability of compounds of the invention to competitively and reversibly displace a well-characterized NK-3 radioligand in a concentration-dependent manner.
^3H-SB222200 Binding Competition Assay with Human NK-3 Receptor
The ability of compounds of the invention to inhibit the binding of the NK-3 receptor selective antagonist ^3H-SB222200 was assessed by an in vitro radioligand binding assay. Membranes were prepared from Chinese hamster ovary recombinant cells stably expressing the human NK-3 receptor. The membranes were incubated with 5 nM ^3H-SB222200 (ARC) in a HEPES 25 mM/NaCl 0.1M/CaCl2 1 mM/MgCl2 5 mM/BSA 0.5%/Saponin 10 μg/ml buffer at pH 7.4 and various concentrations of compounds of the invention. The amount of ^3H-SB222200 bound to the receptor was determined after filtration by the quantification of membrane associated radioactivity using the TopCount-NXT reader (Packard).

[2] = target: human NK-1 receptor (Homo sapiens (Human), UniProt P25103); assay: Selectivity binding assay, human NK-1 ([3H] substance P); conditions: CHO cell membranes; 2 nM [3H] substance P; read-out: hNK-1 (Ki)
human NK-1 receptor, sequence (P25103 whole entry): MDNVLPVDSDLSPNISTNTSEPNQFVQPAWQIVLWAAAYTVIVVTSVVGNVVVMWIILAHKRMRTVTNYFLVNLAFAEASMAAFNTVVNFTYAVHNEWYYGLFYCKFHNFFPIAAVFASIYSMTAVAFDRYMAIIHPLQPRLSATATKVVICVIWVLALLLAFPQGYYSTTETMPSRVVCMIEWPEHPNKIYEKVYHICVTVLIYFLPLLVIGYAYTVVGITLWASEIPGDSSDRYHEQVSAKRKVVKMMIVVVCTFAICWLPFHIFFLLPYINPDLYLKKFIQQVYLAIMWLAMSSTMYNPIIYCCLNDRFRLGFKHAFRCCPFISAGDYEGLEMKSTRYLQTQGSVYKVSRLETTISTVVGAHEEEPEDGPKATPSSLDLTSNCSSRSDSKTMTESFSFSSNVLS
Method: (§1) Selectivity of the compounds of the invention was determined over the other human NK receptors, namely NK-1 and NK-2 receptors.
The affinity of compounds of the invention for the NK-1 receptor was evaluated in CHO recombinant cells which express the human NK-1 receptor. Membrane suspensions were prepared from these cells. The following radioligand: [^3H] substance P (PerkinElmer Cat#NET111520) was used in this assay. Binding assays were performed in a 50 mM Tris/5 mM MnCl2/150 mM NaCl/0.1% BSA at pH 7.4. Binding assays consisted of 25 μl of membrane suspension (approximately 5 μg of protein/well in a 96 well plate), 50 μl of compound or reference ligand (Substance P) at increasing concentrations (diluted in assay buffer) and 2 nM [^3H] substance P. The plate was incubated 60 min at 25° C. in a water bath and then filtered over GF/C filters (Perkin Elmer, 6005174, presoaked in 0.5% PEI for 2 h at room temperature) with a Filtration unit (Perkin Elmer). The radioactivity retained on the filters was measured by using the TopCount-NXT reader (Packard). Competition curves were obtained for compounds of the invention and the concentrations of compounds which displaced 50% of bound radioligand (IC50) were determined and then apparent inhibition constant Ki values were calculated by the following equation: Ki=IC50/(1+[L]/KD) where [L] is the concentration of free radioligand and KD is its dissociation constant at the receptor, derived from saturation binding experiments (Cheng and Prusoff, 1973).

[3] = target: T1, human NK-3 receptor; assay: Aequorin functional assay with human NK-3 receptor (antagonist testing); assay type: cell-based; conditions: CHO cells expressing human NK-3 receptor; agonist NKA at EC80 (3 nM); read-out: Functional assay: Aequorin assay with human NK-3 receptor hNK-3 - AEQ (antagonist IC50)
Method: Aequorin Assay with Human NK-3 Receptor
Changes in intracellular calcium levels are a recognized indicator of G protein-coupled receptor activity. The efficacy of compounds of the invention to inhibit NKA-mediated NK-3 receptor activation was assessed by an in vitro Aequorin functional assay. Chinese Hamster Ovary recombinant cells expressing the human NK-3 receptor and a construct that encodes the photoproteinapoaequorin were used for this assay. In the presence of the cofactor coelenterazine, apoaequorin emits a measurable luminescence that is proportional to the amount of intracellular (cytoplasmic) free calcium.
The antagonist activity of compounds of the invention is measured following pre-incubation (3 minutes) of the compound (at various concentrations) with the cells, followed by addition of the reference agonist (NKA) at a final concentration equivalent to the EC80 (3 nM) and recording of emitted light (FDSS 6000 Hamamatsu) over the subsequent 90-second period. The intensity of the emitted light is integrated using the reader software. Compound antagonist activity is measured based on the concentration-dependent inhibition of the luminescence response to the addition of Neurokinin A.
The IC50 values shown in Table 2 indicate that compounds of the invention are potent NK-3 antagonist compounds.

[4] = tested on: plasma protein; assay: Determination of plasma protein binding (rapid equilibrium dialysis); assay type: in vitro ADME; conditions: 4 hours at 37° C.
Source text: Determination of Plasma Protein Binding
The pharmacokinetic and pharmacodynamic properties of chemicals/drugs are largely a function of the reversible binding of chemicals to plasma or serum proteins. Generally, only the unbound or “free fraction” of a drug is available for diffusion or transport across cell membranes, and for interaction with a pharmacological/toxicological target. Consequently, the extent of the plasma protein binding (PPB) of a compound influences its action as well as its distribution and elimination.
The determination of plasma protein binding (PPB) of a compound is enabled by equilibrium dialysis, an accepted and standard method for reliable estimation of the non-bound drug fraction in plasma. RED (Rapid Equilibrium Dialysis) device insert is made of two side-by-side chambers separated by an O-ring-sealed vertical cylinder of dialysis membrane (MWCO˜8,000). Plasma containing drug (at 5 μM or blood concentrations otherwise corresponding to efficacious doses, if known) is added to one chamber while buffer is added to the second. After 4 hours incubation at 37° C. under shaking, an aliquot is removed from each chamber and analyzed by a LC-MS/MS procedure enables the determination of both free and bound drug.
The percentages provided in Table 4 represent for the compounds of the invention the bound drug fraction to the plasma protein. The “free fraction” may be calculated as 100%−% rPPB (i.e. the complementary percentage of that disclosed in Table 4, corresponding to the drug concentration that is unbound and therefore available to engage biological target and elicit pharmacological activity).

[5] = target: human NK-2 receptor (Homo sapiens (Human), UniProt P21452); assay: Selectivity binding assay, human NK-2 ([125I]-Neurokinin A); conditions: CHO cell membranes; 0.1 nM [125I]-Neurokinin A; read-out: hNK-2 (Ki)
human NK-2 receptor, sequence (P21452 whole entry): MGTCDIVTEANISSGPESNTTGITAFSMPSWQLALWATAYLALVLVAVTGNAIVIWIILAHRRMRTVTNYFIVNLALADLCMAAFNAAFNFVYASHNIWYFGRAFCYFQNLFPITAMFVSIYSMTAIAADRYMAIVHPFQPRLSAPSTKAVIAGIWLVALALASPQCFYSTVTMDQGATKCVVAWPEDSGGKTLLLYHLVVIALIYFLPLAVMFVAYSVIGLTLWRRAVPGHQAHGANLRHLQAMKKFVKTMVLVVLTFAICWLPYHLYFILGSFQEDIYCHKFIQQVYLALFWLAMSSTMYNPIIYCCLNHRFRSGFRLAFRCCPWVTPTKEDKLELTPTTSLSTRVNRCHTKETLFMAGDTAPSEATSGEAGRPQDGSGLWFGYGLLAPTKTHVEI
Method: as §1
The affinity of compounds of the invention for the NK-2 receptor was evaluated in CHO recombinant cells which express the human NK-2 receptor. Membrane suspensions were prepared from these cells. The following radioligand [^125I]-Neurokinin A (PerkinElmer Cat#NEX252) was used in this assay. Binding assays were performed in a 25 mM HEPES/1 mM CaCl2/5 mM MgCl2/0.5% BSA/10 μg/ml saponin, at pH 7.4. Binding assays consisted of 25 μl of membrane suspension (approximately 3.75 μg of protein/well in a 96 well plate), 50 μl of compound or reference ligand (Neurokinin A) at increasing concentrations (diluted in assay buffer) and 0.1 nM [^125I]-Neurokinin A. The plate was incubated 60 min at 25° C. in a water bath and then filtered over GF/C filters (Perkin Elmer, 6005174, presoaked in assay buffer without saponine for 2 h at room temperature) with a Filtration unit (Perkin Elmer). The radioactivity retained on the filters was measured by using the TopCount-NXT reader (Packard). Competition curves were obtained for compounds of the invention and the concentrations of compounds which displaced 50% of bound radioligand (IC50) were determined and then apparent inhibition constant Ki values were calculated by the following equation: Ki=IC50/(1+[L]/KD) where [L] is the concentration of free radioligand and KD is its dissociation constant at the receptor, derived from saturation binding experiments (Cheng and Prusoff, 1973).

[6] = CHO cell membranes, 5 nM 3H-SB222200, Table 2, read-out: Competitive binding assay with human NK-3 receptor hNK-3 (Ki)
[7] = Table 3 (selectivity table), read-out: hNK-3 (Ki)

Cc1nc(-c2nnc3n2CCN(C(=O)c2ccc(F)cc2)[C@@H]3C)cs1 [Compound 2, (R)-(4-fluorophenyl)(8-methyl-3-(2-methylthiazol-4-yl)-5,6-dihydro-[1,2,4]triazolo[4,3-a]pyrazin-7(8H)-yl)methanone]
Ki [1, 6]: 100 nM | Ki [1, 7]: 100 nM | Ki [2]: > 30000 nM | IC50 [3]: 160 nM | Exposure (% rPPB), bound drug fraction to the plasma protein [4]: 17% | Ki [5]: > 30000 nM

C[C@@H]1c2nnc(-c3csc(C(F)(F)F)n3)n2CCN1C(=O)c1cc(F)c(F)c(F)c1 [Compound 15, (R)-(8-methyl-3-(2-(trifluoromethyl)thiazol-4-yl)-5,6-dihydro-[1,2,4]triazolo[4,3-a]pyrazin-7(8H)-yl)(3,4,5-trifluorophenyl)methanone]
Ki [1, 6]: 13 nM | Ki [1, 7]: 13 nM | Ki [2]: 24000 nM | IC50 [3]: 24 nM | Exposure (% rPPB), bound drug fraction to the plasma protein [4]: 60% | Ki [5]: 3500 nM

Cc1ccc(-c2nnc3n2CCN(C(=O)c2ccc(F)c(F)c2)[C@@H]3C)o1 [Compound 5, (R)-(3,4-difluorophenyl)(8-methyl-3-(5-methylfuran-2-yl)-5,6-dihydro-[1,2,4]triazolo[4,3-a]pyrazin-7(8H)-yl)methanone]
Ki [1, 6]: 42 nM | Ki [1, 7]: 42 nM | Ki [2]: > 30000 nM | IC50 [3]: 52 nM | Exposure (% rPPB), bound drug fraction to the plasma protein [4]: 27% | Ki [5]: 31000 nM

C[C@@H]1c2nnc(-c3csc(C(F)(F)F)n3)n2CCN1C(=O)c1ccc(F)c(Cl)c1 [Compound 16, (R)-(3-chloro-4-fluorophenyl)(8-methyl-3-(2-(trifluoromethyl)thiazol-4-yl)-5,6-dihydro-[1,2,4]triazolo[4,3-a]pyrazin-7(8H)-yl)methanone]
Ki [1, 6]: 14 nM | Ki [1, 7]: 14 nM | Ki [2]: 9400 nM | IC50 [3]: 23 nM | Exposure (% rPPB), bound drug fraction to the plasma protein [4]: 82% | Ki [5]: 1500 nM

C[C@@H]1c2nnc(-c3csc(C(F)(F)F)n3)n2CCN1C(=O)c1cc(F)c(F)c(F)c1F [Compound 12, (R)-(8-methyl-3-(2-(trifluoromethyl)thiazol-4-yl)-5,6-dihydro-[1,2,4]triazolo[4,3-a]pyrazin-7(8H)-yl)(2,3,4,5-tetrafluorophenyl)methanone]
Ki [1, 6]: 29 nM | Ki [1, 7]: 29 nM | Ki [2]: 19000 nM | IC50 [3]: 33 nM | Exposure (% rPPB), bound drug fraction to the plasma protein [4]: 67% | Ki [5]: 4700 nM

C[C@@H]1c2nnc(-c3csc(C(F)(F)F)n3)n2CCN1C(=O)c1ccc(Cl)c(F)c1 [Compound 17, (R)-(4-chloro-3-fluorophenyl)(8-methyl-3-(2-(trifluoromethyl)thiazol-4-yl)-5,6-dihydro-[1,2,4]triazolo[4,3-a]pyrazin-7(8H)-yl)methanone]
Ki [1, 6]: 22 nM | Ki [1, 7]: 22 nM | Ki [2]: 12000 nM | IC50 [3]: 37 nM | Exposure (% rPPB), bound drug fraction to the plasma protein [4]: 84% | Ki [5]: 5200 nM

Cc1ccc(-c2nnc3n2CCN(C(=O)c2ccc(Cl)cc2)[C@@H]3C)o1 [Compound 10, (R)-(4-chlorophenyl)(8-methyl-3-(5-methylfuran-2-yl)-5,6-dihydro-[1,2,4]triazolo[4,3-a]pyrazin-7(8H)-yl)methanone]
Ki [1, 6]: 36 nM | Ki [1, 7]: 36 nM | Ki [2]: 25000 nM | IC50 [3]: 74 nM | Exposure (% rPPB), bound drug fraction to the plasma protein [4]: 56% | Ki [5]: 23000 nM

Cc1ccc(-c2nnc3n2CCN(C(=O)c2ccc(Cl)c(Cl)c2)[C@@H]3C)o1 [Compound 11, (R)-(3,4-dichlorophenyl)(8-methyl-3-(5-methylfuran-2-yl)-5,6-dihydro-[1,2,4]triazolo[4,3-a]pyrazin-7(8H)-yl)methanone]
Ki [1, 6]: 27 nM | Ki [1, 7]: 27 nM | Ki [2]: 6900 nM | IC50 [3]: 36 nM | Exposure (% rPPB), bound drug fraction to the plasma protein [4]: 76% | Ki [5]: 4200 nM

C[C@@H]1c2nnc(-c3csc(C(F)(F)F)n3)n2CCN1C(=O)c1ccc(F)c(F)c1F [Compound 14, (R)-(8-methyl-3-(2-(trifluoromethyl)thiazol-4-yl)-5,6-dihydro-[1,2,4]triazolo[4,3-a]pyrazin-7(8H)-yl)(2,3,4-trifluorophenyl)methanone]
Ki [1, 6]: 40 nM | Ki [1, 7]: 40 nM | Ki [2]: 28000 nM | IC50 [3]: 59 nM | Exposure (% rPPB), bound drug fraction to the plasma protein [4]: 69% | Ki [5]: 15000 nM

C[C@@H]1c2nnc(-c3csc(C(F)(F)F)n3)n2CCN1C(=O)c1ccc(Cl)cc1 [Compound 18, (R)-(4-chlorophenyl)(8-methyl-3-(2-(trifluoromethyl)thiazol-4-yl)-5,6-dihydro-[1,2,4]triazol[4,3-a]pyrazin-7(8H)-yl)methanone]
Ki [1, 6]: 21 nM | Ki [1, 7]: 21 nM | Ki [2]: 15000 nM | IC50 [3]: 31 nM | Exposure (% rPPB), bound drug fraction to the plasma protein [4]: 78% | Ki [5]: 5900 nM

Cc1ccc(-c2nnc3n2CCN(C(=O)c2ccc(F)c(F)c2F)[C@@H]3C)o1 [Compound 6, (R)-(8-methyl-3-(5-methylfuran-2-yl)-5,6-dihydro-[1,2,4]triazolo[4,3-a]pyrazin-7(8H)-yl)(2,3,4-trifluorophenyl)methanone]
Ki [1, 6]: 74 nM | Ki [1, 7]: 74 nM | Ki [2]: > 30000 nM | IC50 [3]: 99 nM | Exposure (% rPPB), bound drug fraction to the plasma protein [4]: 37% | Ki [5]: > 30000 nM
